Measurements taken from the NIST ThermoML archive (doi:10.1021/je400659p).
± gives the expanded uncertainty stated by the source.

Assays:
[1] = 101 kPa, Liquid, Vibrating tube method
[2] = refractive index (Na D-line) (dimensionless); details: 101.33 kPa, Liquid, Standard Abbe refractometry
[3] = refractive index (Na D-line) (dimensionless); xn = mol fraction of the nth substance listed; details: 101 kPa, Liquid, Standard Abbe refractometry
[4] = xn = mol fraction of the nth substance listed; details: 101 kPa, Liquid, Vibrating tube method

For OCCO [1,2-ethanediol], which mass density ([1]; 293.15 K) is on record?
The mass density was 1113.45 ± 0.16 kg/m3.

And the mass density ([1]; 303.15 K)?
Its mass density is 1106.45 ± 0.16 kg/m3.

What about the mass density ([1]; 313.15 K) of the same compound?
Its mass density is 1099.38 ± 0.16 kg/m3.

What about the mass density ([1]; 323.15 K) of the same compound?
Its mass density is 1092.24 ± 0.15 kg/m3.

What about the mass density ([1]; 333.15 K) of the same compound?
The mass density was 1085 ± 0.15 kg/m3.

And the mass density ([1]; 343.15 K)?
Its mass density is 1077.65 ± 0.15 kg/m3.

What about the mass density ([1]; 353.15 K) of the same compound?
The mass density was 1070.17 ± 0.15 kg/m3.

What about the refractive index ([2]; 298.15 K) of the same compound?
The refractive index was 1.43 ± 0.0004.

What about the refractive index ([2]; 303.15 K) of the same compound?
The refractive index was 1.4285 ± 0.0004.

And the refractive index ([2]; 313.15 K)?
The refractive index was 1.4258 ± 0.0004.

What about the refractive index ([2]; 323.15 K) of the same compound?
The refractive index was 1.4229 ± 0.0004.

Which refractive index ([3]; 298.15 K, x2 = 0) does the source give for OCCO [1,2-ethanediol] + CCCCn1cc[n+](C)c1.F[B-](F)(F)F here?
The refractive index was 1.43 ± 0.0004.

And the refractive index ([3]; 303.15 K, x2 = 0)?
The refractive index was 1.4285 ± 0.0004.

And the refractive index ([3]; 313.15 K, x2 = 0)?
The refractive index was 1.4258 ± 0.0004.

And the refractive index ([3]; 323.15 K, x2 = 0)?
The refractive index was 1.4229 ± 0.0004.

Which results are given for OCCO [1,2-ethanediol] + CCn1cc[n+](C)c1.F[B-](F)(F)F?
refractive index ([3]; 298.15 K, x2 = 0): 1.43 ± 0.0004; refractive index ([3]; 303.15 K, x2 = 0): 1.4285 ± 0.0004; refractive index ([3]; 313.15 K, x2 = 0): 1.4258 ± 0.0004; refractive index ([3]; 323.15 K, x2 = 0): 1.4229 ± 0.0004; mass density ([4]; 293.15 K, x2 = 0): 1113.45 ± 0.16 kg/m3; mass density ([4]; 303.15 K, x2 = 0): 1106.45 ± 0.16 kg/m3; mass density ([4]; 313.15 K, x2 = 0): 1099.38 ± 0.16 kg/m3; mass density ([4]; 323.15 K, x2 = 0): 1092.24 ± 0.15 kg/m3; mass density ([4]; 333.15 K, x2 = 0): 1085 ± 0.15 kg/m3; mass density ([4]; 343.15 K, x2 = 0): 1077.65 ± 0.15 kg/m3; mass density ([4]; 353.15 K, x2 = 0): 1070.17 ± 0.15 kg/m3

Which results are given for C1COCCO1 [1,4-dioxane]?
mass density ([1]; 293.15 K): 1033.57 ± 0.26 kg/m3; mass density ([1]; 298.15 K): 1027.92 ± 0.25 kg/m3; mass density ([1]; 303.15 K): 1022.27 ± 0.25 kg/m3; mass density ([1]; 313.15 K): 1010.91 ± 0.24 kg/m3; mass density ([1]; 323.15 K): 999.49 ± 0.23 kg/m3; mass density ([1]; 333.15 K): 987.97 ± 0.23 kg/m3; mass density ([1]; 343.15 K): 976.37 ± 0.23 kg/m3; mass density ([1]; 353.15 K): 964.63 ± 0.23 kg/m3; refractive index ([2]; 298.15 K): 1.4205 ± 0.0004; refractive index ([2]; 303.15 K): 1.4171 ± 0.0004; refractive index ([2]; 313.15 K): 1.4112 ± 0.0004; refractive index ([2]; 323.15 K): 1.4063 ± 0.0004

Which refractive index ([3]; 298.15 K, x2 = 0) does the source give for C1COCCO1 [1,4-dioxane] + CCn1cc[n+](C)c1.F[B-](F)(F)F here?
Its refractive index is 1.4205 ± 0.0004.

What about the refractive index ([3]; 303.15 K, x2 = 0) of the same compound?
Its refractive index is 1.4171 ± 0.0004.

What about the refractive index ([3]; 313.15 K, x2 = 0) of the same compound?
The refractive index was 1.4112 ± 0.0004.

And the refractive index ([3]; 323.15 K, x2 = 0)?
The refractive index was 1.4063 ± 0.0004.

And the mass density ([4]; 293.15 K, x2 = 0)?
Its mass density is 1033.57 ± 0.26 kg/m3.

And the mass density ([4]; 298.15 K, x2 = 0)?
The mass density was 1027.92 ± 0.25 kg/m3.

What about the mass density ([4]; 303.15 K, x2 = 0) of the same compound?
The mass density was 1022.27 ± 0.25 kg/m3.

What about the mass density ([4]; 313.15 K, x2 = 0) of the same compound?
Its mass density is 1010.91 ± 0.24 kg/m3.

What about the mass density ([4]; 323.15 K, x2 = 0) of the same compound?
Its mass density is 999.49 ± 0.23 kg/m3.

What about the mass density ([4]; 333.15 K, x2 = 0) of the same compound?
The mass density was 987.97 ± 0.23 kg/m3.

What about the mass density ([4]; 343.15 K, x2 = 0) of the same compound?
The mass density was 976.37 ± 0.23 kg/m3.

What about the mass density ([4]; 353.15 K, x2 = 0) of the same compound?
Its mass density is 964.63 ± 0.23 kg/m3.

Which mass density ([1]; 293.15 K) does the source give for CCCCn1cc[n+](C)c1.F[B-](F)(F)F [1-butyl-3-methylimidazolium tetrafluoroborate] here?
Its mass density is 1204.44 ± 0.4 kg/m3.

And the mass density ([1]; 298.15 K)?
The mass density was 1200.89 ± 0.39 kg/m3.

And the mass density ([1]; 303.15 K)?
Its mass density is 1197.34 ± 0.39 kg/m3.

And the mass density ([1]; 313.15 K)?
Its mass density is 1190.27 ± 0.39 kg/m3.

And the mass density ([1]; 323.15 K)?
The mass density was 1183.24 ± 0.38 kg/m3.

And the mass density ([1]; 333.15 K)?
Its mass density is 1176.25 ± 0.37 kg/m3.

And the mass density ([1]; 343.15 K)?
The mass density was 1169.32 ± 0.37 kg/m3.

What about the mass density ([1]; 353.15 K) of the same compound?
Its mass density is 1162.44 ± 0.36 kg/m3.

What about the refractive index ([2]; 298.15 K) of the same compound?
The refractive index was 1.4215 ± 0.0004.

And the refractive index ([2]; 303.15 K)?
The refractive index was 1.4202 ± 0.0004.

And the refractive index ([2]; 313.15 K)?
The refractive index was 1.4179 ± 0.0004.

And the refractive index ([2]; 323.15 K)?
Its refractive index is 1.4153 ± 0.0004.

What does the source list for CCCCn1cc[n+](C)c1.F[B-](F)(F)F [1-butyl-3-methylimidazolium tetrafluoroborate] + C1COCCO1?
refractive index ([3]; 298.15 K, x1 = 1): 1.4215 ± 0.0004; refractive index ([3]; 303.15 K, x1 = 1): 1.4202 ± 0.0004; refractive index ([3]; 313.15 K, x1 = 1): 1.4179 ± 0.0004; refractive index ([3]; 323.15 K, x1 = 1): 1.4153 ± 0.0004; mass density ([4]; 293.15 K, x1 = 1): 1204.44 ± 0.4 kg/m3; mass density ([4]; 298.15 K, x1 = 1): 1200.89 ± 0.39 kg/m3; mass density ([4]; 303.15 K, x1 = 1): 1197.34 ± 0.39 kg/m3; mass density ([4]; 313.15 K, x1 = 1): 1190.27 ± 0.39 kg/m3; mass density ([4]; 323.15 K, x1 = 1): 1183.24 ± 0.38 kg/m3; mass density ([4]; 333.15 K, x1 = 1): 1176.25 ± 0.37 kg/m3; mass density ([4]; 343.15 K, x1 = 1): 1169.32 ± 0.37 kg/m3; mass density ([4]; 353.15 K, x1 = 1): 1162.44 ± 0.36 kg/m3

With CCCCn1cc[n+](C)c1.F[B-](F)(F)F [1-butyl-3-methylimidazolium tetrafluoroborate] + OCCO as the compound, how does the refractive index ([3]; 298.15 K, x1 = 0.0895) read?
Its refractive index is 1.4276 ± 0.0004.

What about the refractive index ([3]; 298.15 K, x1 = 0.1758) of the same compound?
The refractive index was 1.4257 ± 0.0004.

And the refractive index ([3]; 298.15 K, x1 = 0.3578)?
The refractive index was 1.4231 ± 0.0004.

What about the refractive index ([3]; 298.15 K, x1 = 0.4397) of the same compound?
The refractive index was 1.4224 ± 0.0004.

And the refractive index ([3]; 298.15 K, x1 = 0.6482)?
Its refractive index is 1.4217 ± 0.0004.

What about the refractive index ([3]; 298.15 K, x1 = 0.8121) of the same compound?
The refractive index was 1.4216 ± 0.0004.

And the refractive index ([3]; 298.15 K, x1 = 1)?
The refractive index was 1.4215 ± 0.0004.

What about the refractive index ([3]; 303.15 K, x1 = 0.0895) of the same compound?
The refractive index was 1.4258 ± 0.0004.

What about the refractive index ([3]; 303.15 K, x1 = 0.1758) of the same compound?
Its refractive index is 1.4239 ± 0.0004.

What about the refractive index ([3]; 303.15 K, x1 = 0.3578) of the same compound?
Its refractive index is 1.4216 ± 0.0004.

And the refractive index ([3]; 303.15 K, x1 = 0.4397)?
The refractive index was 1.4211 ± 0.0004.

What about the refractive index ([3]; 303.15 K, x1 = 0.6482) of the same compound?
The refractive index was 1.4205 ± 0.0004.

And the refractive index ([3]; 303.15 K, x1 = 0.8121)?
The refractive index was 1.4204 ± 0.0004.

And the refractive index ([3]; 303.15 K, x1 = 1)?
The refractive index was 1.4202 ± 0.0004.

And the refractive index ([3]; 313.15 K, x1 = 0.0895)?
Its refractive index is 1.4231 ± 0.0004.

What about the refractive index ([3]; 313.15 K, x1 = 0.1758) of the same compound?
The refractive index was 1.4212 ± 0.0004.

And the refractive index ([3]; 313.15 K, x1 = 0.3578)?
The refractive index was 1.4188 ± 0.0004.

And the refractive index ([3]; 313.15 K, x1 = 0.4397)?
Its refractive index is 1.4182 ± 0.0004.

What about the refractive index ([3]; 313.15 K, x1 = 0.6482) of the same compound?
Its refractive index is 1.4178 ± 0.0004.

And the refractive index ([3]; 313.15 K, x1 = 0.8121)?
Its refractive index is 1.4179 ± 0.0004.

What about the refractive index ([3]; 313.15 K, x1 = 1) of the same compound?
Its refractive index is 1.4179 ± 0.0004.

And the refractive index ([3]; 323.15 K, x1 = 0.0895)?
The refractive index was 1.4203 ± 0.0004.

And the refractive index ([3]; 323.15 K, x1 = 0.1758)?
Its refractive index is 1.4184 ± 0.0004.

And the refractive index ([3]; 323.15 K, x1 = 0.3578)?
The refractive index was 1.4159 ± 0.0004.

What about the refractive index ([3]; 323.15 K, x1 = 0.4397) of the same compound?
The refractive index was 1.4154 ± 0.0004.

What about the refractive index ([3]; 323.15 K, x1 = 0.6482) of the same compound?
The refractive index was 1.415 ± 0.0004.

And the refractive index ([3]; 323.15 K, x1 = 0.8121)?
The refractive index was 1.4152 ± 0.0004.

What about the refractive index ([3]; 323.15 K, x1 = 1) of the same compound?
The refractive index was 1.4153 ± 0.0004.

Which results are given for CCn1cc[n+](C)c1.F[B-](F)(F)F [1-ethyl-3-methylimidazolium tetrafluoroborate]?
mass density ([1]; 293.15 K): 1290.63 ± 1.5 kg/m3; mass density ([1]; 298.15 K): 1286.82 ± 1.5 kg/m3; mass density ([1]; 303.15 K): 1283.02 ± 1.5 kg/m3; mass density ([1]; 313.15 K): 1275.45 ± 1.4 kg/m3; mass density ([1]; 323.15 K): 1267.97 ± 1.4 kg/m3; mass density ([1]; 333.15 K): 1260.55 ± 1.4 kg/m3; mass density ([1]; 343.15 K): 1253.18 ± 1.4 kg/m3; mass density ([1]; 353.15 K): 1245.87 ± 1.4 kg/m3; refractive index ([2]; 298.15 K): 1.4111 ± 0.0005; refractive index ([2]; 303.15 K): 1.41 ± 0.0005; refractive index ([2]; 313.15 K): 1.4073 ± 0.0005; refractive index ([2]; 323.15 K): 1.4051 ± 0.0005
